Test system: MV-4-11 cells
Test: Gene expression microarray analysis (Affymetrix PrimeView) and GSEA
Format: cell-based, human
Details: ProbeSet 11733176_x_at; LIST B

Nc1ncn([C@@H]2O[C@H](CO)[C@@H](O)[C@H]2O)c(=O)n1 [azacitidine]
RFU, ZNF507: 25.77 RFU
